# From patent publication US12281122B1, “PI3K inhibitors” (Cogent Biosciences, Inc., priority 2023, dated 2025)
# What was measured:
# [1] = system: T47D (PI3Kα-H1047R) cell line; assay: HTRF phospho-AKT(S473) cell assay in T47D cells; type: cell-based, human; settings: Homo sapiens; T47D (PI3Kα-H1047R) cells, HTRF phospho-AKT(S473), 2 hours compound incubation
# Method in brief: (§1)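 HTRF read-out of phospho-AKT(S473) in lysates gave IC50 values after 2 h compound exposure at 37° C. Dose series was 12 points at 1:3, topping at 5 μM for T47D and 10 μM for SKBR3. Only SKBR3 received 70 ng/ml PDGF-BB during the last 15 minutes.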
# [2] = system: SKBR3 (PI3Kα-Wild Type) cell line; assay: HTRF phospho-AKT(S473) cell assay in SKBR3 cells; type: cell-based, human; settings: Homo sapiens, SK-BR-3; SKBR3 (PI3Kα-Wild Type) cells, HTRF phospho-AKT(S473), 2 hours compound incubation, PDGF-BB stimulated
# Method in brief: as §1
Compound,IC50 [1] [nM],IC50 [2] [nM]
"Cc1cc([C@@H](C)Nc2ccc(Cl)nc2C(=O)NS(C)(=O)=O)c2nc(N3CCN(c4cnc(C)nc4)CC3)n(C)c(=O)c2c1 [Compound 257, (R)-6-chloro-3-((1-(3,6-dimethyl-2-(4-(2-methylpyrimidin-5-yl)piperazin-1-yl)-4-oxo-3,4-dihydroquinazolin-8-yl)ethyl)amino)-N-(methylsulfonyl) picolinamide]",< 250,1000 to 5000
"Cc1cc([C@@H](C)Nc2ccc(Cl)nc2C(=O)NS(C)(=O)=O)c2nc(N3CCC(c4cnc(C)nc4)CC3)n(C)c(=O)c2c1 [Compound 261, (R)-6-chloro-3-((1-(3,6-dimethyl-2-(4-(2-methylpyrimidin-5-yl)piperidin-1-yl)-4-oxo-3,4-dihydroquinazolin-8-yl)ethyl)amino)-N-(methylsulfonyl) picolinamide]",< 250,1000 to 5000
"Cc1cc([C@@H](C)Nc2ccc(Cl)nc2C(=O)NS(C)(=O)=O)c2nc(N3CCN(c4ncc(C#N)cc4F)CC3)n(C)c(=O)c2c1 [Compound 262, (R)-6-chloro-3-((1-(2-(4-(5-cyano-3-fluoropyridin-2-yl)piperazin-1-yl)-3,6-dimethyl-4-oxo-3,4-dihydroquinazolin-8-yl)ethyl)amino)-N-(methylsulfonyl) picolinamide]",< 250,1000 to 5000
"Cc1cc([C@@H](C)Nc2ccc(Cl)nc2C(=O)NS(C)(=O)=O)c2nc(N3CCC(c4ccc(C)nn4)CC3)n(C)c(=O)c2c1 [Compound 264, (R)-6-chloro-3-((1-(3,6-dimethyl-2-(4-(6-methylpyridazin-3-yl)piperidin-1-yl)-4-oxo-3,4-dihydroquinazolin-8-yl)ethyl)amino)-N-(methylsulfonyl) picolinamide]",< 250,1000 to 5000
"Cc1cc([C@@H](C)Nc2ccc(Cl)nc2C(=O)NS(C)(=O)=O)c2nc(N3CCC(c4ncc(C#N)cc4C)CC3)n(C)c(=O)c2c1 [Compound 266, (R)-6-chloro-3-((1-(2-(4-(5-cyano-3-methylpyridin-2-yl)piperidin-1-yl)-3,6-dimethyl-4-oxo-3,4-dihydroquinazolin-8-yl)ethyl)amino)-N-(methylsulfonyl) picolinamide]",< 250,1000 to 5000
"Cc1cc([C@@H](C)Nc2ccc(Cl)nc2C(=O)NS(C)(=O)=O)c2nc(N3CCC(n4c(C)nc5ccccc54)CC3)n(C)c(=O)c2c1 [Compound 268, (R)-6-chloro-3-((1-(3,6-dimethyl-2-(4-(2-methyl-1H-benzo[d]imidazol-1-yl)piperidin-1-yl)-4-oxo-3,4-dihydroquinazolin-8-yl)ethyl)amino)-N-(methylsulfonyl) picolinamide]",< 250,≥ 5000
"Cc1cc([C@@H](C)Nc2ccc(Cl)nc2C(=O)NS(C)(=O)=O)c2nc(N3C4CCC3CN(c3cnn(C)c3)C4)n(C)c(=O)c2c1 [Compound 269, 6-chloro-3-(((1R)-1-(3,6-dimethyl-2-(3-(1-methyl-1H-pyrazol-4-yl)-3,8-diazabicyclo[3.2.1]octan-8-yl)-4-oxo-3,4-dihydroquinazolin-8-yl)ethyl)amino)-N-(methylsulfonyl) picolinamide]",< 250,1000 to 5000
"Cc1cc([C@@H](C)Nc2ccc(Cl)nc2C(=O)NS(C)(=O)=O)c2nc(N3CCC(c4ccc(C)nc4)CC3)n(C)c(=O)c2c1 [Compound 271, (R)-6-chloro-3-((1-(3,6-dimethyl-2-(4-(6-methylpyridin-3-yl)piperidin-1-yl)-4-oxo-3,4-dihydroquinazolin-8-yl)ethyl)amino)-N-(methylsulfonyl) picolinamide]",< 250,1000 to 5000
"Cc1cc([C@@H](C)Nc2ccc(Cl)nc2C(=O)NS(C)(=O)=O)c2nc(N3CCC(c4cnc(C)cn4)CC3)n(C)c(=O)c2c1 [Compound 272, (R)-6-chloro-3-((1-(3,6-dimethyl-2-(4-(5-methylpyrazin-2-yl)piperidin-1-yl)-4-oxo-3,4-dihydroquinazolin-8-yl)ethyl)amino)-N-(methylsulfonyl) picolinamide]",< 250,1000 to 5000
"Cc1cc([C@@H](C)Nc2ccc(Cl)nc2C(=O)NS(C)(=O)=O)c2nc(N3Cc4cccc(-c5cnn(C)c5)c4C3)n(C)c(=O)c2c1 [Compound 273, (R)-6-chloro-3-((1-(3,6-dimethyl-2-(4-(1-methyl-1H-pyrazol-4-yl)isoindolin-2-yl)-4-oxo-3,4-dihydroquinazolin-8-yl)ethyl)amino)-N-(methylsulfonyl) picolinamide]",< 250,≥ 5000

# Other lines, results leading:
IC50 [1] [nM],IC50 [2] [nM],Compound
< 250,1000 to 5000,"Cc1cc([C@@H](C)Nc2ccc(Cl)nc2C(=O)NS(C)(=O)=O)c2nc(N3CCN(c4ccn(C)n4)[C@H](C)C3)n(C)c(=O)c2c1 [Compound 256, 6-chloro-3-(((R)-1-(3,6-dimethyl-2-((R)-3-methyl-4-(1-methyl-1H-pyrazol-3-yl)piperazin-1-yl)-4-oxo-3,4-dihydroquinazolin-8-yl)ethyl)amino)-N-(methylsulfonyl) picolinamide]"
< 250,1000 to 5000,Cc1cc([C@@H](C)Nc2ccc(Cl)nc2C(=O)NS(C)(=O)=O)c2nc(N3CCC(n4ncc5ccncc54)CC3)n(C)c(=O)c2c1 [Compound 258]
< 250,1000 to 5000,"CC(=O)N1CCN(c2ncc(-c3nc4c([C@@H](C)Nc5ccc(Cl)nc5C(=O)NS(C)(=O)=O)cc(C)cc4c(=O)n3C)cc2F)CC1 [Compound 259, (R)-3-((1-(2-(6-(4-acetylpiperazin-1-yl)-5-fluoropyridin-3-yl)-3,6-dimethyl-4-oxo-3,4-dihydroquinazolin-8-yl)ethyl)amino)-6-chloro-N-(methylsulfonyl) picolinamide]"
< 250,1000 to 5000,"Cc1cc([C@@H](C)Nc2ccc(Cl)nc2C(=O)NS(C)(=O)=O)c2nc(N3CCC(c4ccnc(C)n4)CC3)n(C)c(=O)c2c1 [Compound 260, (R)-6-chloro-3-((1-(3,6-dimethyl-2-(4-(2-methylpyrimidin-4-yl)piperidin-1-yl)-4-oxo-3,4-dihydroquinazolin-8-yl)ethyl)amino)-N-(methylsulfonyl) picolinamide]"
< 250,1000 to 5000,"Cc1cc([C@@H](C)Nc2ccc(Cl)nc2C(=O)NS(C)(=O)=O)c2nc(N3CCC(Oc4ccn(C)n4)CC3)n(C)c(=O)c2c1 [Compound 265, (R)-6-chloro-3-((1-(3,6-dimethyl-2-(4-((1-methyl-1H-pyrazol-3-yl)oxy)piperidin-1-yl)-4-oxo-3,4-dihydroquinazolin-8-yl)ethyl)amino)-N-(methylsulfonyl) picolinamide]"
< 250,1000 to 5000,"Cc1cc([C@@H](C)Nc2ccc(Cl)nc2C(=O)NS(C)(=O)=O)c2nc(N3CCC(c4ccn(C5CC5)n4)CC3)n(C)c(=O)c2c1 [Compound 267, (R)-6-chloro-3-((1-(2-(4-(1-cyclopropyl-1H-pyrazol-3-yl)piperidin-1-yl)-3,6-dimethyl-4-oxo-3,4-dihydroquinazolin-8-yl)ethyl)amino)-N-(methylsulfonyl) picolinamide]"
< 250,≥ 5000,"Cc1cc([C@@H](C)Nc2ccc(Cl)nc2C(=O)NS(C)(=O)=O)c2nc(N3CCC(n4cc(-c5cnc(C)cn5)cn4)CC3)n(C)c(=O)c2c1 [Compound 270, (R)-6-chloro-3-((1-(3,6-dimethyl-2-(4-(4-(5-methylpyrazin-2-yl)-1H-pyrazol-1-yl)piperidin-1-yl)-4-oxo-3,4-dihydroquinazolin-8-yl)ethyl)amino)-N-(methylsulfonyl) picolinamide]"
